This note sets out measurements from patent EP4778924A1 (Huons Co., Ltd., priority 2023, dated 2025).

Entries after “also recorded” stand apart in the source; their conditions may differ. Where a name gives a salt, the structure may show the parent alone.

The term IC50 denotes the concentration that inhibits the measured activity by half. A high value points to weaker potency in that assay.

Test [1] addresses T1, Proton Pump (H^+,K^+-ATPase) (Sus scrofa, UniProt P19156).
T1 construct: gastric vesicles were isolated from porcine stomachs; from tissue; host or cells: porcine stomach (gastric vesicles)
Description: Inhibitory activity on proton pump (H+,K+-ATPase) activity, porcine gastric vesicles, malachite green readout. The conditions noted are these: for IC50: porcine gastric vesicles, pH 6.5, 8 mM KCl, 0.2 mM ATP; for inhibitory activity against proton pump activity: result in words. In kind it is biochemical. Summed up:
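Porcine gastric vesicles (100 ng) preincubated 30 min at 37°C with […] valinomycin and compound (0.1% DMSO final) in 50 mM Tris-HEPES, 5 mM MgCl2, 8 mM KCl, pH 6.5, then 0.2 mM ATP for 20 min at 37°C. Released phosphate measured by malachite green at 620 nm; IC50 via nonlinear regression of % inhibition.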

Test [2] relates to Pylorus-Ligated Rats. Description: Inhibitory activity on basal gastric acid secretion in pylorus-ligated rats (Shay's rat model). In kind it is in vivo, male Sprague Dawley (SD) rats. The settings on record: for inhibition in vivo at 2 mg/kg: Rattus norvegicus, po, read-out: GERD (rat/mpk); for inhibitory activity against basal gastric acid secretion: result in words, pyloric-ligated rats. The protocol: Specifically, male Sprague Dawley (SD) rats (weighing 180-220 g) were fasted for 24 hours with only water, and then randomly assigned to groups (n=4-5) after measuring body weight. The negative control group was orally administered 10% dimethylsulfoxide (DMSO)/10% Cremophor EL/80% D.W. at 2 mL/kg, and the test group was orally administered the test compound at 2 mg/kg/2 mL. One hour after administration, the rats' abdominal cavity was incised under isoflurane anesthesia, the stomach was exposed, and the pylorus was ligated. Three hours after ligation, the test animals were sacrificed and the stomach contents were collected by laparotomy again. The contents were centrifuged (3,000 rpm, 10 min), and only the supernatant was separated to obtain gastric juice. Afterwards, gastric fluid volume measurement, gastric fluid pH measurement, NaOH titration, and total gastric acid secretion calculation (gastric fluid volume × 0.1 N NaOH titer × 100) were sequentially performed.

T1 sequence (P19156 2-1034 limits assumed): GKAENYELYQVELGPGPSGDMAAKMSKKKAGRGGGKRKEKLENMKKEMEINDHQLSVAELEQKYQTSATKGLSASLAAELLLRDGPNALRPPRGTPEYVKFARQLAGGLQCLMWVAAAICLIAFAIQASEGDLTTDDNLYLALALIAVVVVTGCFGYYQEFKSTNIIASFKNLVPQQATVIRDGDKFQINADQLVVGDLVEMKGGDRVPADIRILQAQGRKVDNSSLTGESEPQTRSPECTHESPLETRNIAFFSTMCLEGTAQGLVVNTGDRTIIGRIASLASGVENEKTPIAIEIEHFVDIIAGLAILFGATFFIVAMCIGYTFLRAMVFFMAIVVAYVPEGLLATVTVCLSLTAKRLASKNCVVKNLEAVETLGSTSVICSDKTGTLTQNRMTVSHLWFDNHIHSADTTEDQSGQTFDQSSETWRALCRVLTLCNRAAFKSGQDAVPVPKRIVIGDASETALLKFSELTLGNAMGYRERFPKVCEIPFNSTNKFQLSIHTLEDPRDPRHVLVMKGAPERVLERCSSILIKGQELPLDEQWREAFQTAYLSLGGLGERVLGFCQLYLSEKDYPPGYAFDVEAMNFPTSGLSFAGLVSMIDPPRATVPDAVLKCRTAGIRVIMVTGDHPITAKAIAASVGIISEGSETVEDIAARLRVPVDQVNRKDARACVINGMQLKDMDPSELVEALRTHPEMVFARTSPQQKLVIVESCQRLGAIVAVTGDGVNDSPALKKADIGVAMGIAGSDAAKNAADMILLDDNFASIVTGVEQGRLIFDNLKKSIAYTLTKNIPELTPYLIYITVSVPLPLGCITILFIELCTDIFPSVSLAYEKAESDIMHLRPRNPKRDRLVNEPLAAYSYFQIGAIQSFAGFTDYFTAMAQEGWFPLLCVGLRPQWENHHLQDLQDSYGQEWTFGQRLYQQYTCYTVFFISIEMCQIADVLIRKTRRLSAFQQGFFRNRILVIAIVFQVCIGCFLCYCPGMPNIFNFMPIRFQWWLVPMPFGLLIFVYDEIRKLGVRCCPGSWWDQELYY
T1 sequence (P18434 whole entry partner): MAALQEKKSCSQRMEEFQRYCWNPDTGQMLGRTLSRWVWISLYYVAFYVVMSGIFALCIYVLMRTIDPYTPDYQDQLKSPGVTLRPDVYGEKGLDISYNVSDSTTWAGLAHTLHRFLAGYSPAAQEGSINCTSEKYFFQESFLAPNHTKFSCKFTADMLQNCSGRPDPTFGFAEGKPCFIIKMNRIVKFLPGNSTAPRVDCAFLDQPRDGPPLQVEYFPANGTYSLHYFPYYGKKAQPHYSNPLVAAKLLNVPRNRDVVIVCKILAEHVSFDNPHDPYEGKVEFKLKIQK

With `CC(=O)Nc1cc(NCc2c(C)cccc2C)c2nc(C)c(C)n2c1` [Example 4, N-(8-((2,6-dimethylbenzyl)amino)-2,3-dimethylimidazo[1,2-a]pyridin-6-yl)acetamide], in test [1], the IC50 was < 50 nM and the “inhibitory activity against proton pump activity” value was “excellent inhibitory properties”. In addition, the inhibition in vivo at 2 mg/kg in test [2] is ≥ 90%. Further, the “inhibitory activity against basal gastric acid secretion” value in test [2] (2 mg/kg oral) is reported as “inhibitory activity”.
For `COCC(=O)Nc1cc(NCc2c(C)cccc2C)c2nc(C)c(C)n2c1` [Example 15, N-(8-((2,6-dimethylbenzyl)amino)-2,3-dimethylimidazo[1,2-a]pyridin-6-yl)-2-methoxyacetamide] the same measures were < 50 nM, “excellent inhibitory properties”, ≥ 90% and “inhibitory activity”.
Regarding `CC(=O)Nc1cc(NCc2c(C)cc(F)cc2C)c2nc(C)c(C)n2c1` [Example 21, N-(8-((4-fluoro-2,6-dimethylbenzyl)amino)-2,3-dimethylimidazo[1,2-a]pyridin-6-yl)acetamide], in test [1], the IC50 is < 50 nM and the “inhibitory activity against proton pump activity” value is “excellent inhibitory properties”. Moreover, the inhibition in vivo at 2 mg/kg in test [2] is ≥ 90%. In test [2] (2 mg/kg oral), the “inhibitory activity against basal gastric acid secretion” value is recorded as “inhibitory activity”.
With `Cc1cccc(C)c1CNc1cc(NC(=O)CO)cn2c(C)c(C)nc12` [Example 26, N-(8-((2,6-dimethylbenzyl)amino)-2,3-dimethylimidazo[1,2-a]pyridin-6-yl)-2-hydroxyacetamide], in test [1], the IC50 was < 50 nM and the “inhibitory activity against proton pump activity” value was “excellent inhibitory properties”. The inhibition in vivo at 2 mg/kg in test [2] is ≥ 90%. Also, the “inhibitory activity against basal gastric acid secretion” value in test [2] (2 mg/kg oral) is recorded as “inhibitory activity”.
For the molecule `CC(=O)Nc1cc(NCc2c(C)cc(F)cc2C)c2nc(C)c(C)n2c1.Cl` [Example 45, N-(8-((4-fluoro-2,6-dimethylbenzyl)amino)-2,3-dimethylimidazo[1,2-a]pyridin-6-yl)acetamide hydrochloride], the “GERD (rat/mpk)” value in test [2] (% inhibitory activity on total gastric acid secretion, 2 mg/kg oral, pylorus ligated 1 h after administration, stomach contents collected 3 h after ligation) is reported as “A (A≥90%)”. Besides, the “inhibitory activity against basal gastric acid secretion” value in test [2] (2 mg/kg oral) is reported as “inhibitory activity”.
As to `Cc1cccc(C)c1CNc1cc(N2C(=O)CNC2=O)cn2c(C)c(C)nc12` [Example 60, 3-(8-((2,6-dimethylbenzyl)amino)-2,3-dimethylimidazo[1,2-a]pyridin-6-yl)imidazolidine-2,4-dione], in test [1], the IC50 is < 50 nM and the “inhibitory activity against proton pump activity” value is recorded as “excellent inhibitory properties”. Also, in test [2], the inhibition in vivo at 2 mg/kg was ≥ 90%. Further, in test [2] (2 mg/kg oral), the “inhibitory activity against basal gastric acid secretion” value is reported as “inhibitory activity”.
As to `Cc1cc(F)cc(C)c1CNc1cc(NC(=O)CO)cn2c(C)c(C)nc12.O=C(O)CC(O)(CC(=O)O)C(=O)O` [Example 86, N-(8-((4-fluoro-2,6-dimethylbenzyl)amino)-2,3-dimethylimidazo[1,2-a]pyridin-6-yl)-2-hydroxyacetamide citrate], the IC50 in test [1] was < 50 nM. The inhibition in vivo at 2 mg/kg in test [2] is ≥ 90%. The “inhibitory activity against basal gastric acid secretion” value in test [2] (2 mg/kg oral) is given as “inhibitory activity”.
The like results for `COCC(=O)Nc1cc(NCc2c(C)cc(F)cc2C)c2nc(C)c(C)n2c1.O=C(O)CC(O)(CC(=O)O)C(=O)O` [Example 100, N-(8-((4-fluoro-2,6-dimethylbenzyl)amino)-2,3-dimethylimidazo[1,2-a]pyridin-6-yl)-2-methoxyacetamide citrate] were, in that order, < 50 nM, ≥ 90% and “inhibitory activity”.
As for `Cc1cc(F)cc(C)c1CNc1cc(NC(=O)CCO)cn2c(C)c(C)nc12.O=C(O)CC(O)(CC(=O)O)C(=O)O` [Example 101, N-(8-((4-fluoro-2,6-dimethylbenzyl)amino)-2,3-dimethylimidazo[1,2-a]pyridin-6-yl)-3-hydroxypropanamide citrate], the IC50 in test [1] was < 50 nM. In test [2], the inhibition in vivo at 2 mg/kg fell in the range of 70 to 80%. Further, the “inhibitory activity against basal gastric acid secretion” value in test [2] (2 mg/kg oral, citrate, 2 mg/kg) is on record as “inhibitory activity; also recorded: somewhat reduced”.
For the molecule `Cc1cccc(C)c1CNc1cc(NC(=O)CCO)cn2c(C)c(C)nc12.O=C(O)CC(O)(CC(=O)O)C(=O)O` [Example 102, N-(8-((2,6-dimethylbenzyl)amino)-2,3-dimethylimidazo[1,2-a]pyridin-6-yl)-3-hydroxypropanamide citrate], in test [1], the IC50 was < 50 nM. Further, in test [2], the inhibition in vivo at 2 mg/kg is ≥ 90%. The “inhibitory activity against basal gastric acid secretion” value in test [2] (2 mg/kg oral) is on record as “inhibitory activity”.
In turn, `Cc1cccc(C)c1CNc1cc(N)cn2c(C)c(C)nc12` [Preliminary Example 1, N^8-(2,6-dimethylbenzyl)-2,3-dimethylimidazo[1,2-a]pyridine-6,8-diamine] displayed an IC50 in test [1] of 50 to 100 nM.
For `Cc1cc(F)cc(C)c1CNc1cc(N)cn2c(C)c(C)nc12` [Preliminary Example 2, N^8-(4-fluoro-2,6-dimethylbenzyl)-2,3-dimethylimidazo[1,2-a]pyridine-6,8-diamine hydrochloride], in test [1], the IC50 was 50 to 100 nM.
For `Cc1nc2c(O[C@H]3CCOc4cc(F)cc(F)c43)cc(C(=O)N(C)C)cc2[nH]1` [Tegoprazan, reference compound], the IC50 in test [1] is > 500 nM.
As for “tert-butyl (2-(3-(8-((2,6-dimethylbenzyl)amino)-2,3-dimethylimidazo[1,2-a]pyridin-6-yl)ureido)ethyl)carbamate hydrochloride [Example 42]”, the IC50 in test [1] was 100 to 500 nM.
